Measurements as given in US10781229B2, “Tris- or neopentyl glycol-based amphiphiles and uses thereof” (Industry-University Cooperation Foundation Hanyang …, priority 2015, dated 2020).

Legend:
[1] = Hydrodynamic radius and size distribution of micelles by dynamic light scattering (DLS); format: physicochemical
Description: A method of measuring the radius of a micelle is not specifically limited and may be any method generally known in the art. For example, the radius may be measured by a dynamic light scattering (DLS) experiment.
In particular, critical micellar concentrations (CMCs) were measured using hydrophobic fluorescence staining and diphenylhexatriene (DPH), and hydrodynamic radii (Rh) of micelles formed of each material were measured by a dynamic light scattering (DLS) experiment. Measured results are compared to values of DDM as an existing amphipathic molecule (detergent).
Meanwhile, size distributions of the micelles formed of TDTs and NDTs were measured using DLS. Results are illustrated in FIG. 5. TDTs or NDTs were respectively used in an amount of 0.5% by weight. As a result, micelles of TDTs or NDTs were measured as forming a single community.

[2] = target: T1, melibiose permease (MelB), MelBSt (Salmonella typhimurium, UniProt P30878); test: MelB extraction efficiency and stability by SDS-PAGE and western immunoblotting; conditions: 1.5% by weight; for MelB protein solubilization effect versus temperature: 0 to 45° C. and above; for MelB protein extraction efficiency from membrane: 0° C.
T1 construct: made in house; host or cells: 'Salmonella typhimurium DW2 cell (melB and lacZY)', plasmid pK95AHB/WT MelBSt/CH10
T1 sequence (P30878 whole entry): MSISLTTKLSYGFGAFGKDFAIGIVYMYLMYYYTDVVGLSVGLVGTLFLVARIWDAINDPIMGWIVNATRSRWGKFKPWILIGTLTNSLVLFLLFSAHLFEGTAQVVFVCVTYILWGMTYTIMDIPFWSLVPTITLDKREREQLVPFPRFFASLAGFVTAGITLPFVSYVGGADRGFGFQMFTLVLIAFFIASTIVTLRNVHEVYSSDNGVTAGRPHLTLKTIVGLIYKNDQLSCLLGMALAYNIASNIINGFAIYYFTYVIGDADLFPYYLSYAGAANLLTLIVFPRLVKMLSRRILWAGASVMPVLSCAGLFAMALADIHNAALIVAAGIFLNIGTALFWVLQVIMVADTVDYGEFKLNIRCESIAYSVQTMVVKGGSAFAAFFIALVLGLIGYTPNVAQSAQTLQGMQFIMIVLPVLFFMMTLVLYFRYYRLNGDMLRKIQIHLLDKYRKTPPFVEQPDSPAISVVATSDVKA
Description: Experiments to measure the extraction efficiency and structural stability of a Salmonella typhimurium melibiose permease (MelB) protein by TDTs or NDTs were conducted. The MelB protein was extracted using TDTs, NDTs, or DDM and then the amounts and structures of extracted proteins were quantitatively analyzed by SDS-PAGE and western immunoblotting. The concentrations of the used amphipathic molecules were 1.5% by weight. Protein extraction was carried out at four temperatures (0, 45, 55 or 65° C.) for 90 minutes to simultaneously evaluate the protein extraction efficiency and stabilization ability of the amphipathic molecules.
In particular, in accordance with a method disclosed in a paper (P. S. Chae, et al., Chemistry. 2013, 19, 15645-15651) published by the present inventors, a protein (MelBSt) was produced using a pK95AHB/WT MelBSt/CH10 plasmid and a Salmonella typhimurium DW2 cell (melB and lacZY) to encode wild-type MelB having a 10-His tag at a C-terminal. In accordance with a method disclosed in a paper (Nat. Commun. 2014, 5, 3009) published by A. S. Ethayathulla, et al., cell proliferation and membrane preparation was carried out. Protein analysis was performed using a Micro BCA kit (Thermo Scientific, Rockford, Ill.). So as to measure the solubilization/stability of MelBSt, a membrane sample including MelBSt (final protein concentration of 10 mg/mL) was mixed with a solubilization buffer (20 mM sodium phosphate, pH 7.5, 200 mM NaCl, 10% glycerol, and 20 mM melibiose) and 1.5% (w/v) DDM, TDTs or NDTs. An extracted product was incubated at four temperatures (0, 45, 55 and 65° C.) for 90 minutes. Ultracentrifugation was carried out for 45 minutes at 4° C. and 355,590 g by means of a Beckman Optima™ MAX ultracentrifuge and a TLA-100 rotor. Subsequently, 20 μg of a protein was separated by SDS-16% PAGE and then subjected to immunoblotting with a Penta-His-HRP antibody (Qiagen, Germantown, Md.).

[3] = target: LeuT E192C^TMR (Aquifex aeolicus, UniProt O67854, E192C); test: Site-directed fluorescence (iodide) quenching of LeuT E192C-TMR, Stern-Volmer analysis; format: biochemical
Description: A principle of this experiment is as follows: A cysteine residue was inserted into a 192th LeuT site (E192C), followed by coupling with a thiol-reactive fluorophore (tetramethylrhodamine-5-maleimide, TMR). The prepared LeuT E192C^TMR, as TMR-coupled LeuT, is an excellent system to sensitively monitor protein structure change in response to ligand coupling. […] Due to such change, TMR fluorescence molecules exposed to an aqueous solution become closer to iodide (I^−), as a quencher dissolved in water, whereby strong fluorescence quenching is caused. TMR quenching intensity by leucine coupling may be represented by Stern-Volmer plotting and thus structural flexibility of a protein may be directly measured. Ligand bindability of the TMR-labeled transporter was measured using SPA while increasing the amount of [^3H]leucine.
In particular, structure, expression, purification, and fluorescence labeling were performed according to the following methods. In accordance with a method disclosed in a paper published by C. B. Billesbolle, et al. (J. Biol. Chem. 2015, 290, 26725-26738), a leucine transporter mutant (LeuT E192C^TMR) was produced and purification and labeling were carried out. In summary, a residue of the E192 was mutated with cysteine using QuikChange (Agilent Technologies) such that fluorescence coupling was accomplished by maleimide labeling. The LeuT mutant was expressed in E. coli C41 (DE3). A membrane of DE3 was disrupted and LeuT was solubilized with 1% (w/v) DDM. Subsequently, LeuT solubilized with the amphipathic molecule was fixed to a Chelating Sepharose Fast Flow resin (GE Healthcare, Little Chalfont, UK), followed by washing with tetramethylrhodamine-5-maleimide (TMR, Life Technologies, Carlsbad, Calif., USA) at 4° C. for 16 hours. Subsequently, LeuT was eluted with a buffer containing 300 mM imidazole, 20 mM Tris-HCl (pH 8.0), 1 mM NaCl, 199 mM KCl, and 0.05% DDM.
Fluorescence spectroscopy was carried out according to the following method. A fluorescence-based experiment was carried out by diluting 0.5 μg ml^−1 of fluorescence-labeled LeuT with buffer A supplemented with CMC+0.04% by weight of DDM, MNG-3 or NDT-C11. Leucine was separately added to specimen aliquots of LeuT for each concentration and incubated for one hour in a room temperature shaker. Steady-state fluorescence intensities were recorded with a FluoroMax4 (Horiba Scientific, Edison, N.J., USA) at λem=572 nm and excitation source at λex=552 nm at 25° C. Quencher-titration was carried out by successive additions of small specimen aliquots containing 1 M KI into buffer A supplemented with 10 mM Na2S2O3. Fluorescence intensities (F) were corrected for sample dilution and normalized to the initial intensity (F0) of a sample. All data was analyzed by linear-(Stern-Volmer plot) or nonlinear regression in GraphPad Prism 6.0 (GraphPad Software). The degree of iodide (I^−) accessibility was obtained from the following Stern-Volmer equation: F0/F=1+Ksv×[Q], where F0/F is normalized fluorescence quenching, Ksv is a Stern-Volmer constant, and [Q] is quencher concentration. When means are calculated as a log, the means are shown as pIC50 and the [s.e.m. interval] from pIC50±s.e.m.
Values of radioligand binding constants were calculated through SPA saturation binding experiments. Values of iodide quenching-response constants and ΔKSV were calculated from a site-directed fluorescence quenching spectroscopy. The affinity (Kd) is shown as means±s.e.m and ΔKSV is shown as means [s.e.m. interval]. All data is shown as means of three to four independent experiments.

[4] = tested on: leucine transporter (LeuT); test: LeuT stability by [3H]-Leu scintillation proximity assay (SPA); format: biochemical, Aquifex aeolicus; conditions: CMC+0.2% by weight, room temperature
Description: Experiments to measure the structural stability of a leucine transporter (LeuT) protein by TDTs or NDTs were conducted. LeuT protein activity was measured by scintillation proximity assay (SPA) utilizing [^3H]-Leu as a ligand. The concentration of TDTs, NDTs, or DDM was (a) CMC+0.04% by weight, or (b) CMC+[…].
In particular, the LeuT stability measurement experiments were conducted according to the following methods. Depending upon the results of UapA and MelB, only TDT-C11, TDT-C12, NDT-C10, NDT-C11 and NDT-C12 among the amphipathic molecules according to the present invention were selectively used. In accordance with a method disclosed in a paper published by G. Deckert, et al. (Nature 1998, 392, 353-358), a wild-type leucine transporter (LeuT) was purified from Aquifex aeolicus. LeuT is expressed in E. coli C41 (DE3) transformed with pET16b encoding a C-terminal 8×His-tagged transporter (the expression plasmid was provided by Dr E. Gouaux, Vollum Institute, Portland, Oreg., USA). In summary, the […] protein was isolated and solubilized with 1.0% by weight of DDM, followed by binding the protein to a Ni^2+-NTA resin (Life Technologies, Denmark) and eluting the same with 20 mM Tris-HCl (pH 8.0), 1 mM NaCl, 199 mM KCl, 0.05% DDM, and 300 mM imidazole. Next, about 1.5 mg/ml of a protein stock was 10-fold diluted with a buffer in which DDM and imidazole are absent, but TDTs, NDTs, or DDM (control) is supplemented such that a final concentration becomes CMC+0.04% by weight or CMC+0.2% by weight. Protein samples were stored at room temperature and centrifuged at a predetermined time. To evaluate protein activity, [^3H]-Leu coupling was measured using scintillation proximity assay (SPA) (M. Quick et al., Proc. Natl, Acad. Sci. U.S.A. 2007, 104, 3603-3608). 5 μL of each protein sample dissolved in a buffer that contained 200 mM NaCl and each test compound was analyzed. SPA reaction was carried out in the presence of 20 nM [^3H]-Leu and copper chelate (His-Tag) YSi beads (both purchased from PerkinElmer, Denmark). [^3H]-Leu coupling was measured by means of a MicroBeta liquid scintillation counter (PerkinElmer).

SMILES: CCCCCCCCCCCC(CCCCCCCCCCC)C(=O)NC(CO[C@@H]1OC(CO)[C@@H](O)C(O)C1O)(CO[C@@H]1OC(CO)[C@@H](O)C(O)C1O)CO[C@@H]1OC(CO)[C@@H](O)C(O)C1O (stereo partly shown) [TDT-C11]
- Rh (hydrodynamic radius of micelles) [1]: 37 ± 8.0 nm
- Amount of MelB protein dissolved ([2]; 55° C., 90 minutes): 65%

SMILES: CCCCCCCCCCCCC(CCCCCCCCCCCC)C(=O)NC(CO[C@@H]1OC(CO)[C@@H](O)C(O)C1O)(CO[C@@H]1OC(CO)[C@@H](O)C(O)C1O)CO[C@@H]1OC(CO)[C@@H](O)C(O)C1O (stereo partly shown) [TDT-C12]
- Rh (hydrodynamic radius of micelles) [1]: 53 ± 1.2 nm
- MelB protein solubilization effect versus temperature [2]: increase with elevating temperature
- MelB protein extraction efficiency from membrane ([2]; 90 minutes): Slightly decreased solubilization effects

SMILES: CCCCCCCCCCC(CCCCCCCCCC)(CO[C@@H]1O[C@H](CO)[C@@H](O[C@H]2O[C@H](CO)[C@@H](O)[C@H](O)[C@H]2O)[C@H](O)[C@H]1O)CO[C@@H]1O[C@H](CO)[C@@H](O[C@H]2O[C@H](CO)[C@@H](O)[C@H](O)[C@H]2O)[C@H](O)[C@H]1O [MNG-3]
- Structural fluidity of the LeuT protein ([3]; conclusion from ΔKsv): tends to greatly limit the structural fluidity
- Δ KSV ([3]; leucine-induced change of iodide accessibility of TMR, CMC+0.04% by weight detergent, means [s.e.m. interval]): 0.4 M⁻¹

SMILES: CCCCCCCCCC(CCCCCCCCC)C(=O)NC(CO[C@@H]1OC(CO)[C@@H](O)C(O)C1O)(CO[C@@H]1OC(CO)[C@@H](O)C(O)C1O)CO[C@@H]1OC(CO)[C@@H](O)C(O)C1O (stereo partly shown) [TDT-C9]
- Rh (hydrodynamic radius of micelles) [1]: 3.4 ± 0.4 nm

SMILES: CCCCCCCCCC(CCCCCCCCC)COCC(CO[C@@H]1OC(CO)[C@@H](O)C(O)C1O)(CO[C@@H]1OC(CO)[C@@H](O)C(O)C1O)CO[C@@H]1OC(CO)[C@@H](O)C(O)C1O (stereo partly shown) [NDT-C9]
- Rh (hydrodynamic radius of micelles) [1]: 3.1 ± 0.1 nm

SMILES: CCCCCCCCCCC(CCCCCCCCCC)C(=O)NC(CO[C@@H]1OC(CO)[C@@H](O)C(O)C1O)(CO[C@@H]1OC(CO)[C@@H](O)C(O)C1O)CO[C@@H]1OC(CO)[C@@H](O)C(O)C1O (stereo partly shown) [TDT-C10]
- Rh (hydrodynamic radius of micelles) [1]: 4.5 ± 0.2 nm

SMILES: CCCCCCCCCCCCC(CCCCCCCCCCCC)COCC(CO[C@@H]1OC(CO)[C@@H](O)C(O)C1O)(CO[C@@H]1OC(CO)[C@@H](O)C(O)C1O)CO[C@@H]1OC(CO)[C@@H](O)C(O)C1O (stereo partly shown) [NDT-C12]
- Rh (hydrodynamic radius of micelles) [1]: 3.8 ± 0.4 nm
- MelB protein solubilization effect versus temperature [2]: increase with elevating temperature
- MelB protein extraction efficiency from membrane ([2]; 90 minutes): Slightly decreased solubilization effects
- LeuT protein stabilization ability ([3H]-Leu binding) [4]: excellent

SMILES: CCCCCCCCCCC(CCCCCCCCCC)COCC(CO[C@@H]1OC(CO)[C@@H](O)C(O)C1O)(CO[C@@H]1OC(CO)[C@@H](O)C(O)C1O)CO[C@@H]1OC(CO)[C@@H](O)C(O)C1O (stereo partly shown) [NDT-C10]
- Rh (hydrodynamic radius of micelles) [1]: 3.2 ± 0.1 nm
- LeuT protein stabilization ability ([3H]-Leu binding) [4]: excellent
